Experimental data published in ChEMBL document CHEMBL5729119, “Aliphatic acid amide derivative” (2022).
pKi: −log10 of the molar value.

Columns and labels:
[1] = biological target: 5-hydroxytryptamine receptor 7 (Homo sapiens, UniProt P34969); assay: Binding Activity Assay: Human 5-HT2A Receptor, Human 5-HT7 Receptor, and Human D2 Receptor: Binding affinity of the present compound for human 5-HT2A receptor, human 5-HT7 receptor, and human D2 receptor was measured by the following procedures.CHO cell membrane fraction in which human 5-HT2A receptor, human 5-HT7 receptor, or human D2 receptor was expressed was purchased from PerkinElmer, Inc. …
Sequence of 5-hydroxytryptamine receptor 7 (P34969 whole entry): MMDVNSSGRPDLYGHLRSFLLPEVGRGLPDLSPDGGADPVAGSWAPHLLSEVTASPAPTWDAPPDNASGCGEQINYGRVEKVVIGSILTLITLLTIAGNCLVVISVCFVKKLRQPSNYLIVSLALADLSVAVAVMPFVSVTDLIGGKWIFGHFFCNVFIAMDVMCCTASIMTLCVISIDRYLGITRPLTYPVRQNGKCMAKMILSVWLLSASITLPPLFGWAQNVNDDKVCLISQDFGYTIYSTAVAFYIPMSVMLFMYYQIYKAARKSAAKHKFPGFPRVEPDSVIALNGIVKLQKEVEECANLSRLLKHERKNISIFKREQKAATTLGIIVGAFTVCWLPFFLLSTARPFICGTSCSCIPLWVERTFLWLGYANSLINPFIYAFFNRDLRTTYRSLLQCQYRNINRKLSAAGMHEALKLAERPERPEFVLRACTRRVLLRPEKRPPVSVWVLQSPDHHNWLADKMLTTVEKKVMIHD
Description: (§1) Each mixture was incubated at room temperature for 60 minutes. Non specific binding to receptors was obtained from a competitive binding test in the presence of 10 μmol/L 8-OH-DPAT, 10 μmol/L Mianserin, or 10 μmol/L Spiperone, respectively.

[2] = biological target: D(2) dopamine receptor (Homo sapiens, UniProt P14416); assay: as above
Sequence of D(2) dopamine receptor (P14416 whole entry): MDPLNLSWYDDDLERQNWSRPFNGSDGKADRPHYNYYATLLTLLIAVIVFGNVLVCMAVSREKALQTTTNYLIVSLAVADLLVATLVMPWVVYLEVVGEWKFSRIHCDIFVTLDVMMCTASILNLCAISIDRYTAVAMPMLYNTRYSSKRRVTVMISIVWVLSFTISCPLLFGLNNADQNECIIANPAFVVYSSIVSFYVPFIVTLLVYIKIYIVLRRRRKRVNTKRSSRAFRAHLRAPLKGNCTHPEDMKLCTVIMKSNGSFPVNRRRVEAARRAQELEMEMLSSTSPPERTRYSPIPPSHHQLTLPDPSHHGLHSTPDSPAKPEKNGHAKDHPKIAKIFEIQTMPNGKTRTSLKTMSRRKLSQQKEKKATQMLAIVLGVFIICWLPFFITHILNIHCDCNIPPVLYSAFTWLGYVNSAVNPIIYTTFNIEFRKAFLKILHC
Description: as §1

Row | SMILES | pKi [1] | pKi [2]
1 | CCN(CCN1CCC(c2noc3cc(F)c(C)cc23)CC1)C(=O)[C@H](C)O | 7.69 | < 6.00
2 | CCN(CCN1CCC(c2noc3cc(F)ccc23)CC1)C(=O)C1(O)CC1 | 8.96 | > 7.00
3 | CCN(CCN1CCC(c2noc3cc(F)ccc23)CC1)C(=O)CCO | 8.31 | 6.81
